In PMC5218480 (PLoS ONE, 2017):

Test system: MV-4-11 cells
Test: Gene expression microarray analysis (Affymetrix PrimeView) and GSEA
Assay type: cell-based, human
Design: RFU PODN (11730768_x_at) / Fold change /veh PODN (11730768_x_at) / RFU LINC00158 (11744669_a_at) / Fold change /veh LINC00158 (11744669_a_at) / RFU DUSP10 (11751237_a_at) / Fold change /veh DUSP10 (11751237_a_at) / RFU ID3 (11757404_x_at) / Fold change /veh ID3 (11757404_x_at) / RFU PLEKHG5 (11737974_s_at) / Fold change /veh PLEKHG5 (11737974_s_at) / RFU LRRC4B (11730491_at) / Fold change /veh LRRC4B (11730491_at) / RFU GIMAP4 (11747438_a_at) / Fold change /veh GIMAP4 (11747438_a_at) / RFU KRT8 (11758183_x_at) / Fold change /veh KRT8 (11758183_x_at) / RFU CNN1 (11734310_a_at) / Fold change /veh CNN1 (11734310_a_at) / RFU VPS37D (11726825_at) / Fold change /veh VPS37D (11726825_at) / RFU C10orf10 (11716522_x_at) / Fold change /veh C10orf10 (11716522_x_at) / RFU KIR2DL2 /// KIR2DL4 /// KIR2DL5A /// KIR2DL5B /// KIR2DS1 /// KIR2DS2 /// KIR2DS3 /// KIR2DS4 /// KIR3DL3 /// KIR3DL3 /// KIR3DS1 (11738374_at) / Fold change /veh KIR2DL2 /// KIR2DL4 /// KIR2DL5A /// KIR2DL5B /// KIR2DS1 /// KIR2DS2 /// KIR2DS3 /// KIR2DS4 /// KIR3DL3 /// KIR3DL3 /// KIR3DS1 (11738374_at) / RFU C1QL1 (11718748_at) / Fold change /veh C1QL1 (11718748_at) / RFU TMPRSS4 (11747572_a_at) / Fold change /veh TMPRSS4 (11747572_a_at) / RFU HAMP (11756126_x_at) / Fold change /veh HAMP (11756126_x_at) / RFU RNFT2 (11725882_a_at) / Fold change /veh RNFT2 (11725882_a_at) / RFU NR4A2 (11747474_a_at) / Fold change /veh NR4A2 (11747474_a_at) / RFU ABCC12 (11746883_a_at) / Fold change /veh ABCC12 (11746883_a_at) / RFU TMEM136 (11760407_x_at) / Fold change /veh TMEM136 (11760407_x_at) / RFU CLDN22 /// WWC2 (11732394_at) / Fold change /veh CLDN22 /// WWC2 (11732394_at) / RFU HLA-DPB1 (11760878_x_at) / Fold change /veh HLA-DPB1 (11760878_x_at) / RFU SPINT1 (11716480_a_at) / Fold change /veh SPINT1 (11716480_a_at) / RFU GAP43 (11754022_s_at) / Fold change /veh GAP43 (11754022_s_at) / RFU A4GNT (11735810_at) / Fold change /veh A4GNT (11735810_at) / RFU PRB3 (11715151_x_at) / Fold change /veh PRB3 (11715151_x_at) / RFU TUBB4B (11761932_at) / Fold change /veh TUBB4B (11761932_at) / RFU CAPN14 (11732068_a_at) / Fold change /veh CAPN14 (11732068_a_at) / RFU TMCC2 (11721928_a_at) / Fold change /veh TMCC2 (11721928_a_at) / RFU IRGQ (11745062_a_at) / Fold change /veh IRGQ (11745062_a_at) / RFU FAM174B (11720279_a_at) / Fold change /veh FAM174B (11720279_a_at) / RFU TMPRSS4 (11748680_a_at) / Fold change /veh TMPRSS4 (11748680_a_at) / RFU FAM212B (11763350_a_at) / Fold change /veh FAM212B (11763350_a_at) / RFU PLEKHG5 (11743358_a_at) / Fold change /veh PLEKHG5 (11743358_a_at) / RFU ZSCAN30 (11745921_a_at) / Fold change /veh ZSCAN30 (11745921_a_at) / RFU CMKLR1 (11741424_a_at) / Fold change /veh CMKLR1 (11741424_a_at) / RFU LOC101060620 /// MAPK8IP1 (11723275_at) / Fold change /veh LOC101060620 /// MAPK8IP1 (11723275_at) / RFU SPTSSB (11747773_x_at) / Fold change /veh SPTSSB (11747773_x_at) / RFU PRSS12 (11739890_at) / Fold change /veh PRSS12 (11739890_at) / RFU BIN1 (11741810_x_at) / Fold change /veh BIN1 (11741810_x_at) / RFU WNT11 (11732464_a_at) / Fold change /veh WNT11 (11732464_a_at) / RFU C10orf10 (11716521_a_at) / Fold change /veh C10orf10 (11716521_a_at) / RFU C5orf56 (11738089_at) / Fold change /veh C5orf56 (11738089_at) / RFU CYB561 (11721691_x_at) / Fold change /veh CYB561 (11721691_x_at) / RFU ANKRD19P (11752326_a_at) / Fold change /veh ANKRD19P (11752326_a_at) / RFU OR2T12 /// OR2T33 /// OR2T8 (11738714_s_at) / Fold change /veh OR2T12 /// OR2T33 /// OR2T8 (11738714_s_at) / RFU VCAN (11748164_a_at) / Fold change /veh VCAN (11748164_a_at) / RFU JSRP1 (11732532_at) / Fold change /veh JSRP1 (11732532_at) / RFU KRTAP10-11 (11738290_x_at) / Fold change /veh KRTAP10-11 (11738290_x_at) / RFU MYO3A (11730013_a_at) / Fold change /veh MYO3A (11730013_a_at) / RFU EBF3 (11725865_a_at) / Fold change /veh EBF3 (11725865_a_at) / RFU CAMK2N1 (11719241_x_at) / Fold change /veh CAMK2N1 (11719241_x_at) / RFU C5orf56 (11738088_a_at) / Fold change /veh C5orf56 (11738088_a_at) / RFU OLFML3 (11715873_a_at) / Fold change /veh OLFML3 (11715873_a_at) / RFU LOC100653217 /// NTM (11731650_a_at) / Fold change /veh LOC100653217 /// NTM (11731650_a_at) / RFU MAPK11 (11762145_a_at) / Fold change /veh MAPK11 (11762145_a_at) / RFU FIZ1 (11724087_x_at) / Fold change /veh FIZ1 (11724087_x_at) / RFU OASL (11726364_x_at) / Fold change /veh OASL (11726364_x_at) / RFU SOX15 (11748057_x_at) / Fold change /veh SOX15 (11748057_x_at) / RFU CD79A (11719716_a_at) / Fold change /veh CD79A (11719716_a_at) / RFU HIST1H1D (11736915_at) / Fold change /veh HIST1H1D (11736915_at) / RFU CASKIN2 (11723855_a_at) / Fold change /veh CASKIN2 (11723855_a_at) / RFU LOC730098 (11760151_x_at) / Fold change /veh LOC730098 (11760151_x_at) / RFU OR4N2 (11742367_at) / Fold change /veh OR4N2 (11742367_at) / RFU PRRT2 (11749266_a_at) / Fold change /veh PRRT2 (11749266_a_at) / RFU SNX32 (11753110_a_at) / Fold change /veh SNX32 (11753110_a_at) / RFU CDHR5 (11726645_a_at) / Fold change /veh CDHR5 (11726645_a_at) / RFU RCAN1 (11760418_a_at) / Fold change /veh RCAN1 (11760418_a_at) / RFU FAM167A (11723789_a_at) / Fold change /veh FAM167A (11723789_a_at) / RFU FAM26E (11764081_at) / Fold change /veh FAM26E (11764081_at) / RFU ISYNA1 (11749810_s_at) / Fold change /veh ISYNA1 (11749810_s_at) / RFU ACY1 (11761880_at) / Fold change /veh ACY1 (11761880_at) / RFU 11764098_at / Fold change /veh 11764098_at / RFU SAMD14 (11745864_x_at) / Fold change /veh SAMD14 (11745864_x_at) / RFU NPB (11741838_a_at) / Fold change /veh NPB (11741838_a_at) / RFU TMPRSS6 (11731388_a_at) / Fold change /veh TMPRSS6 (11731388_a_at) / RFU KRTAP10-2 (11738614_at) / Fold change /veh KRTAP10-2 (11738614_at) / RFU ARHGAP8 /// PRR5-ARHGAP8 (11727945_x_at) / Fold change /veh ARHGAP8 /// PRR5-ARHGAP8 (11727945_x_at) / RFU KRTAP5-7 /// NADSYN1 (11734609_at) / Fold change /veh KRTAP5-7 /// NADSYN1 (11734609_at) / RFU RASL12 (11751679_a_at) / Fold change /veh RASL12 (11751679_a_at) / RFU CDKN2B (11736163_a_at) / Fold change /veh CDKN2B (11736163_a_at) / RFU PRF1 (11729649_at) / Fold change /veh PRF1 (11729649_at) / RFU, ZNF638 /// ZNF638-IT1 / Fold change vs veh, ZNF638 /// ZNF638-IT1 / RFU, PANK3 / Fold change vs veh, PANK3 / RFU, SH3YL1 / Fold change vs veh, SH3YL1 / RFU, ZEB2 / Fold change vs veh, ZEB2 / RFU, NRIP1 / Fold change vs veh, NRIP1 / RFU, PTTG1IP / Fold change vs veh, PTTG1IP / RFU, CAPN2 / Fold change vs veh, CAPN2 / RFU, MED14 / Fold change vs veh, MED14 / RFU, SNORA58 / Fold change vs veh, SNORA58 / RFU, C1orf63 / Fold change vs veh, C1orf63 / RFU, LRRFIP1 / Fold change vs veh, LRRFIP1 / RFU, NDUFAF7 / Fold change vs veh, NDUFAF7 / RFU, SLC12A2 / Fold change vs veh, SLC12A2 / RFU, IBTK / Fold change vs veh, IBTK / RFU, ESF1 / Fold change vs veh, ESF1 / Fold change vs veh, TMEM50B / RFU, TAOK1 / Fold change vs veh, TAOK1 / RFU, ACBD3 / Fold change vs veh, ACBD3 / RFU, TMA16 / Fold change vs veh, TMA16 / RFU, RWDD3 / Fold change vs veh, RWDD3 / RFU, BCAT1 / Fold change vs veh, BCAT1 / RFU, EDEM3 / Fold change vs veh, EDEM3 / RFU, TMEM33 / Fold change vs veh, TMEM33 / RFU, WDR75 / Fold change vs veh, WDR75 / RFU, AHCTF1 / Fold change vs veh, AHCTF1 / RFU, TFRC / Fold change vs veh, TFRC / RFU, ZDHHC17 / Fold change vs veh, ZDHHC17 / RFU, NOM1 / Fold change vs veh, NOM1 / RFU, ARL8B / Fold change vs veh, ARL8B / RFU, ZBTB11 / Fold change vs veh, ZBTB11 / RFU, TAMM41 / Fold change vs veh, TAMM41 / RFU, KIAA1704 /// LOC100996395 / Fold change vs veh, KIAA1704 /// LOC100996395 / RFU, ING1 / Fold change vs veh, ING1 / RFU, TRMT61B / Fold change vs veh, TRMT61B / RFU, FUBP3 / Fold change vs veh, FUBP3 / RFU, TP53 / Fold change vs veh, TP53 / RFU, TNKS2 / Fold change vs veh, TNKS2 / RFU, ZFP14 / Fold change vs veh, ZFP14 / RFU, ACTR2 / Fold change vs veh, ACTR2 / RFU, PPP3R1 / Fold change vs veh, PPP3R1 / RFU, PIK3R1 / Fold change vs veh, PIK3R1 / RFU, HNRNPA1 / Fold change vs veh, HNRNPA1 / RFU, RNF170 / Fold change vs veh, RNF170 / RFU, ZNF28 / Fold change vs veh, ZNF28 / RFU, RNGTT / Fold change vs veh, RNGTT / RFU, OGT / Fold change vs veh, OGT / RFU, BRD1 / Fold change vs veh, BRD1 / RFU, MARS / Fold change vs veh, MARS / RFU, ZNF655 / Fold change vs veh, ZNF655 / RFU, FAHD1 / Fold change vs veh, FAHD1 / RFU, BDP1 / Fold change vs veh, BDP1 / RFU, LRRCC1 / Fold change vs veh, LRRCC1 / RFU, ARID1A / Fold change vs veh, ARID1A / RFU, ZNF146 / Fold change vs veh, ZNF146 / RFU, ZNF330 / Fold change vs veh, ZNF330 / RFU, GPN3 / Fold change vs veh, GPN3 / RFU, C9orf123 / Fold change vs veh, C9orf123 / RFU, N4BP2L2 / Fold change vs veh, N4BP2L2 / RFU, ARFIP1 / Fold change vs veh, ARFIP1 / RFU, FAM179B / Fold change vs veh, FAM179B / RFU, BCL10 / Fold change vs veh, BCL10 / RFU, UHRF1BP1L / Fold change vs veh, UHRF1BP1L / RFU, BET1 / Fold change vs veh, BET1 / RFU, CNOT2 / Fold change vs veh, CNOT2 / RFU, ZNF268 / Fold change vs veh, ZNF268 / Fold change vs veh, ZNF507 / RFU, DGCR2 / Fold change vs veh, DGCR2 / RFU, WDSUB1 / Fold change vs veh, WDSUB1 / Fold change vs veh, HSP90B1 /// MIR3652 / RFU, ADSS / Fold change vs veh, ADSS / RFU, GK / Fold change vs veh, GK / RFU, ZNF148 / Fold change vs veh, ZNF148 / RFU, TAF9 / Fold change vs veh, TAF9 / RFU, SLC1A5 / Fold change vs veh, SLC1A5 / RFU, SLMO2 / Fold change vs veh, SLMO2 / RFU, ABCC4 / Fold change vs veh, ABCC4 / RFU, LOC101060439 /// RAP1B / Fold change vs veh, LOC101060439 /// RAP1B / RFU, RFX7 / Fold change vs veh, RFX7 / RFU, GTPBP10 / Fold change vs veh, GTPBP10 / RFU, CNEP1R1 / Fold change vs veh, CNEP1R1 / RFU, BIVM-ERCC5 /// ERCC5 / Fold change vs veh, BIVM-ERCC5 /// ERCC5 / RFU, ILF3 / Fold change vs veh, ILF3 / RFU 11762660_at / Fold change /veh 11762660_at / RFU VCAN (11757783_s_at) / Fold change /veh VCAN (11757783_s_at) / RFU DDX43 (11728927_at) / Fold change /veh DDX43 (11728927_at) / RFU KRT8 (11758188_x_at) / Fold change /veh KRT8 (11758188_x_at) / RFU NKD1 (11759106_at) / Fold change /veh NKD1 (11759106_at) / RFU SRD5A1 (11742802_a_at) / Fold change /veh SRD5A1 (11742802_a_at) / RFU TPSAB1 /// TPSB2 (11721975_s_at) / Fold change /veh TPSAB1 /// TPSB2 (11721975_s_at) / RFU GSTM3 (11746129_a_at) / Fold change /veh GSTM3 (11746129_a_at) / RFU IL23R (11737362_x_at) / Fold change /veh IL23R (11737362_x_at) / RFU TMEM51 (11727254_a_at) / Fold change /veh TMEM51 (11727254_a_at) / RFU PIWIL2 (11732686_x_at) / Fold change /veh PIWIL2 (11732686_x_at) / RFU ORM1 (11744905_x_at) / Fold change /veh ORM1 (11744905_x_at) / RFU CCDC152 (11743942_at) / Fold change /veh CCDC152 (11743942_at) / RFU ECM1 (11717891_a_at) / Fold change /veh ECM1 (11717891_a_at) / RFU IL23R (11748794_a_at) / Fold change /veh IL23R (11748794_a_at) / RFU TNFAIP8L3 (11732012_x_at) / Fold change /veh TNFAIP8L3 (11732012_x_at) / RFU MBOAT4 (11741988_at) / Fold change /veh MBOAT4 (11741988_at) / RFU 11764193_at / Fold change /veh 11764193_at / RFU TMEM53 (11763286_at) / Fold change /veh TMEM53 (11763286_at) / RFU MAGEB2 (11727129_at) / Fold change /veh MAGEB2 (11727129_at) / RFU TMEM200A (11744735_a_at) / Fold change /veh TMEM200A (11744735_a_at) / RFU CCDC152 (11751479_a_at) / Fold change /veh CCDC152 (11751479_a_at) / RFU FAM211A (11726209_a_at) / Fold change /veh FAM211A (11726209_a_at) / RFU RGS16 (11746705_a_at) / Fold change /veh RGS16 (11746705_a_at) / RFU VCAN (11755009_s_at) / Fold change /veh VCAN (11755009_s_at) / RFU RHOB (11743442_s_at) / Fold change /veh RHOB (11743442_s_at) / RFU RGS16 (11720943_a_at) / Fold change /veh RGS16 (11720943_a_at) / RFU RGS16 (11720944_at) / Fold change /veh RGS16 (11720944_at) / RFU, VPS4B / Fold change vs veh, VPS4B / RFU, CREB1 / Fold change vs veh, CREB1 / RFU, DNAJC13 / Fold change vs veh, DNAJC13 / RFU, GNAQ / Fold change vs veh, GNAQ / RFU, CDK5R1 / Fold change vs veh, CDK5R1 / RFU, ZRANB3 / Fold change vs veh, ZRANB3 / RFU, CUL4A / Fold change vs veh, CUL4A / RFU, CCNY / Fold change vs veh, CCNY / RFU, UFL1 / Fold change vs veh, UFL1 / RFU, COG3 / Fold change vs veh, COG3 / RFU, DIAPH2 / Fold change vs veh, DIAPH2 / RFU, SKA2 / Fold change vs veh, SKA2 / RFU, AFF3 / Fold change vs veh, AFF3 / RFU, LMF1 / Fold change vs veh, LMF1 / RFU, IPO11 / Fold change vs veh, IPO11 / RFU, DFFB / Fold change vs veh, DFFB / RFU, FOXP1 / Fold change vs veh, FOXP1 / RFU, CARD8 / Fold change vs veh, CARD8 / RFU, STRN3 / Fold change vs veh, STRN3 / RFU, ADK / Fold change vs veh, ADK / RFU, RASSF2 / Fold change vs veh, RASSF2 / RFU, WIPF1 / Fold change vs veh, WIPF1 / RFU, LARP1B / Fold change vs veh, LARP1B / RFU, RASA1 / Fold change vs veh, RASA1 / RFU, RB1 / Fold change vs veh, RB1 / RFU, PPFIA1 / Fold change vs veh, PPFIA1 / RFU, MAT2A / Fold change vs veh, MAT2A / RFU, CCT5 / Fold change vs veh, CCT5 / RFU, WDR92 / Fold change vs veh, WDR92 / RFU, CUX1 / Fold change vs veh, CUX1 / RFU, TTC7A / Fold change vs veh, TTC7A / RFU, TMEM135 / Fold change vs veh, TMEM135 / RFU, DEPTOR / Fold change vs veh, DEPTOR / RFU, CPM / Fold change vs veh, CPM / RFU, DNAJB6 / Fold change vs veh, DNAJB6 / RFU, CACNA2D3 / Fold change vs veh, CACNA2D3 / RFU, DTX4 / Fold change vs veh, DTX4 / RFU, TFCP2 / Fold change vs veh, TFCP2 / RFU, GMCL1 /// GMCL1P1 / Fold change vs veh, GMCL1 /// GMCL1P1 / RFU, AEBP2 / Fold change vs veh, AEBP2 / RFU, SNHG1 /// SNORD22 /// SNORD25 /// SNORD26 /// SNORD27 /// SNORD28 /// SNORD29 /// SNORD31 / Fold change vs veh, SNHG1 /// SNORD22 /// SNORD25 /// SNORD26 /// SNORD27 /// SNORD28 /// SNORD29 /// SNORD31 / Fold change (Aza/veh), C12orf56 (ProbeSet 11735607_a_at) / Fold change (ACY-1035/veh), C12orf56 (ProbeSet 11735607_a_at) / Fold change (Aza/veh), FGFR1OP (ProbeSet 11751329_s_at) / Fold change (ACY-1035/veh), FGFR1OP (ProbeSet 11751329_s_at) / Fold change (Aza/veh), VPS36 (ProbeSet 11739960_a_at) / Fold change (ACY-1035/veh), VPS36 (ProbeSet 11739960_a_at) / RFU SYPL1 (11715823_x_at) / Fold change /veh SYPL1 (11715823_x_at) / RFU IGFBP7 (11715501_s_at) / Fold change /veh IGFBP7 (11715501_s_at) / RFU REEP3 (11722064_at) / Fold change /veh REEP3 (11722064_at) / RFU IGLL1 (11728026_x_at) / Fold change /veh IGLL1 (11728026_x_at): dose or concentration left out as unconfirmed
Conditions: MV-4-11 cells, 48 hours

SMILES: Nc1ncn([C@@H]2O[C@H](CO)[C@@H](O)[C@H]2O)c(=O)n1 [azacitidine]
- RFU JSRP1 (11732532_at): 47.93 RFU
